# Source: paper PMC2990605 (British Journal of Cancer, 2010)
# Test: Adverse events (CTCAEv3.0), worst grade per patient regardless of relation, and laboratory parameters
# Type: in vivo
# Conditions: human, in vivo
# Method: Toxicity was evaluated according to common toxicity criteria for adverse events (CTCAEv3.0). The MTD was defined as the dose level(s) at which at least two out of six patients developed DLT.
# Toxicity assessment, haematology and clinical biochemistry were performed at baseline and weekly during the study. Physical and ECOG performance status were recorded at baseline and before the next cycle.
compound,measurement,value
CC(C)C[C@@H](C(=O)N[C@H](C(=O)OC1CCCC1)c1ccccc1)[C@H](O)C(=O)NO [tosedostat],"Cough, CTCAE grade 3, patients",0
same,"Cough, CTCAE grade 4, patients",0
same,"Cough, patients with events, %",41%
same,"Cystitis, CTCAE grade 1, patients",0
same,"Cystitis, CTCAE grade 2, patients",1
same,"Cystitis, CTCAE grade 3, patients",1
same,"Cystitis, CTCAE grade 4, patients",0
same,"Cystitis, patients with events, %",9%
same,"Dehydration, CTCAE grade 1, patients",0
same,"Dehydration, CTCAE grade 2, patients",1
same,"Dehydration, CTCAE grade 3, patients",1
same,"Dehydration, CTCAE grade 4, patients",0
same,"Dehydration, patients with events, %",9%
same,"Diabetes mellitus, CTCAE grade 1, patients",0
same,"Diabetes mellitus, CTCAE grade 2, patients",0
same,"Diabetes mellitus, CTCAE grade 3, patients",1
same,"Diabetes mellitus, CTCAE grade 4, patients",0
same,"Diabetes mellitus, patients with events, %",5%
same,"Diarrhoea, CTCAE grade 1, patients",5
same,"Diarrhoea, CTCAE grade 2, patients",3
same,"Diarrhoea, CTCAE grade 3, patients",0
same,"Diarrhoea, CTCAE grade 4, patients",0
same,"Diarrhoea, patients with events, %",36%
same,"Dizziness, CTCAE grade 1, patients",8
same,"Dizziness, CTCAE grade 2, patients",1
same,"Dizziness, CTCAE grade 3, patients",1
same,"Dizziness, CTCAE grade 4, patients",0
same,"Dizziness, patients with events, %",45%
same,"Drug hypersensitivity, CTCAE grade 1, patients",3
same,"Drug hypersensitivity, CTCAE grade 2, patients",1
same,"Drug hypersensitivity, CTCAE grade 3, patients",7
same,"Drug hypersensitivity, CTCAE grade 4, patients",0
same,"Drug hypersensitivity, patients with events, %",50%
same,"Dry skin, CTCAE grade 1, patients",3
same,"Dry skin, CTCAE grade 2, patients",0
same,"Dry skin, CTCAE grade 3, patients",1
same,"Dry skin, CTCAE grade 4, patients",0
same,"Dry skin, patients with events, %",18%
same,"Dyspnoea, CTCAE grade 1, patients",6
same,"Dyspnoea, CTCAE grade 4, patients",0
same,"Eosinophilic myocarditis, CTCAE grade 1, patients",0
same,"Eosinophilic myocarditis, CTCAE grade 2, patients",0
same,"Eosinophilic myocarditis, CTCAE grade 3, patients",0
same,"Eosinophilic myocarditis, CTCAE grade 4, patients",0
same,"Eosinophilic myocarditis, patients with events, %",5%
same,"Erythema, CTCAE grade 1, patients",1
same,"Erythema, CTCAE grade 2, patients",0
same,"Erythema, CTCAE grade 3, patients",1
same,"Erythema, CTCAE grade 4, patients",0
same,"Erythema, patients with events, %",9%
same,"Fatigue, CTCAE grade 1, patients",5
same,"Fatigue, CTCAE grade 2, patients",10
same,"Fatigue, CTCAE grade 3, patients",6
same,"Fatigue, CTCAE grade 4, patients",0
same,"Fatigue, patients with events, %",95%
same,"Gastric dilatation, CTCAE grade 1, patients",0
same,"Gastric dilatation, CTCAE grade 2, patients",0
same,"Gastric dilatation, CTCAE grade 3, patients",1
same,"Gastric dilatation, CTCAE grade 4, patients",0
same,"Gastric dilatation, patients with events, %",5%
same,"General physical health deterioration, CTCAE grade 1, patients",0
same,"General physical health deterioration, CTCAE grade 2, patients",0
same,"General physical health deterioration, CTCAE grade 3, patients",1
same,"General physical health deterioration, CTCAE grade 4, patients",0
same,"General physical health deterioration, patients with events, %",5%
same,"Hypercalcaemia, CTCAE grade 1, patients",0
same,"Hypercalcaemia, CTCAE grade 2, patients",0
same,"Hypercalcaemia, CTCAE grade 3, patients",1
same,"Hypercalcaemia, CTCAE grade 4, patients",0
same,"Hypercalcaemia, patients with events, %",5%
same,"Hyperglycaemia, CTCAE grade 1, patients",0
same,"Hyperglycaemia, CTCAE grade 2, patients",1
same,"Hyperglycaemia, CTCAE grade 3, patients",2
same,"Hyperglycaemia, CTCAE grade 4, patients",0
same,"Hyperglycaemia, patients with events, %",14%
same,"Hyperhidrosis, CTCAE grade 1, patients",2
same,"Hyperhidrosis, CTCAE grade 2, patients",0
same,"Hyperhidrosis, CTCAE grade 3, patients",1
same,"Hyperhidrosis, CTCAE grade 4, patients",0
same,"Hyperhidrosis, patients with events, %",14%
same,"Leukopenia, CTCAE grade 1, patients",0
same,"Leukopenia, CTCAE grade 2, patients",1
same,"Leukopenia, CTCAE grade 3, patients",3
same,"Leukopenia, CTCAE grade 4, patients",0
same,"Leukopenia, patients with events, %",18%
same,"Malaise, CTCAE grade 1, patients",1
same,"Malaise, CTCAE grade 2, patients",1
same,"Malaise, CTCAE grade 3, patients",1
same,"Malaise, CTCAE grade 4, patients",0
same,"Malaise, patients with events, %",14%
same,"Mucosal inflammation, CTCAE grade 1, patients",4
same,"Mucosal inflammation, CTCAE grade 2, patients",1
same,"Mucosal inflammation, CTCAE grade 3, patients",0
same,"Mucosal inflammation, CTCAE grade 4, patients",0
same,"Mucosal inflammation, patients with events, %",23%
same,"Myalgia, CTCAE grade 1, patients",8
same,"Myalgia, CTCAE grade 2, patients",1
same,"Myalgia, CTCAE grade 3, patients",1
same,"Myalgia, CTCAE grade 4, patients",0
same,"Myalgia, patients with events, %",45%
same,"Nasopharyngitis, CTCAE grade 1, patients",6
same,"Nasopharyngitis, CTCAE grade 2, patients",0
same,"Nasopharyngitis, CTCAE grade 3, patients",0
same,"Nasopharyngitis, CTCAE grade 4, patients",0
same,"Nasopharyngitis, patients with events, %",27%
same,"Nausea, CTCAE grade 1, patients",9
same,"Nausea, CTCAE grade 2, patients",1
same,"Nausea, CTCAE grade 3, patients",0
same,"Nausea, CTCAE grade 4, patients",0
same,"Nausea, patients with events, %",45%
same,"Neoplasms benign, malignant and unspecified (including cysts and polyps), patients with events, %",14%
same,"Nervous system disorders, patients with events, %",95%
same,"Neutropenia, CTCAE grade 1, patients",0
same,"Neutropenia, CTCAE grade 2, patients",0
same,"Neutropenia, CTCAE grade 3, patients",2
same,"Neutropenia, CTCAE grade 4, patients",4
same,"Neutropenia, patients with events, %",27%
same,"Oedema peripheral, CTCAE grade 1, patients",6
same,"Oedema peripheral, CTCAE grade 2, patients",2
same,"Oedema peripheral, CTCAE grade 3, patients",0
same,"Oedema peripheral, CTCAE grade 4, patients",0
same,"Oedema peripheral, patients with events, %",36%
same,"Oedema, CTCAE grade 1, patients",4
same,"Oedema, CTCAE grade 2, patients",0
same,"Oedema, CTCAE grade 3, patients",1
same,"Oedema, CTCAE grade 4, patients",0
same,"Oedema, patients with events, %",23%
same,"Peripheral sensory neuropathy, CTCAE grade 1, patients",6
same,"Peripheral sensory neuropathy, CTCAE grade 2, patients",4
same,"Peripheral sensory neuropathy, CTCAE grade 3, patients",3
same,"Peripheral sensory neuropathy, CTCAE grade 4, patients",0
same,"Peripheral sensory neuropathy, patients with events, %",59%
same,"Pollakiuria, CTCAE grade 1, patients",0
same,"Pollakiuria, CTCAE grade 2, patients",0
same,"Pollakiuria, CTCAE grade 3, patients",1
same,"Pollakiuria, CTCAE grade 4, patients",0
